Source: ChEMBL document CHEMBL6083180, “Design, synthesis, and biological activity of D-bishomo-1α,25-dihydroxyvitamin D3 analogs and their crystal structures with the vitamin D nuclear receptor” (Eur J Med Chem, 2024)
Active and inactive are the calls of the source. The calls are words filed in the database; no cut-off is given here.

How the values were obtained:
[1] = test system: MV4-11; assay: Antiproliferative activity against human MV4-11 cells at 100 nM incubated for 72 hrs by MTT assay relative to control; assay type: functional
[2] = test system: MV4-11; assay: Antiproliferative activity against human MV4-11 cells at 1000 nM incubated for 72 hrs by MTT assay relative to control; assay type: functional
[3] = test system: NCI-H226; assay: Antiproliferative activity against human NCI-H226 cells at 1000 nM incubated for 72 hrs by SRB assay relative to control; assay type: functional
[4] = test system: HCC4006; assay: Antiproliferative activity against human HCC4006 cells assessed as inhibition of cell proliferation at 1 nM incubated for 72 hrs by SRB assay relative to control; assay type: functional
[5] = test system: HL-60; assay: Antiproliferative activity against human HL-60 cells at 100 nM incubated for 72 hrs by MTT assay relative to control; assay type: functional
[6] = test system: HCC4006; assay: Antiproliferative activity against human HCC4006 cells assessed as inhibition of cell proliferation at 100 nM incubated for 72 hrs by SRB assay relative to control; assay type: functional
[7] = test system: HCC4006; assay: Antiproliferative activity against human HCC4006 cells assessed as inhibition of cell proliferation at 1000 nM incubated for 72 hrs by SRB assay relative to control; assay type: functional
[8] = Antiproliferative activity against human LUDLU-1 cells at 1000 nM incubated for 72 hrs by SRB assay relative to control; assay type: functional
[9] = test system: NCI-H226; assay: Antiproliferative activity against human NCI-H226 cells at 100 nM incubated for 72 hrs by SRB assay relative to control; assay type: functional
[10] = Antiproliferative activity against human LUDLU-1 cells at 100 nM incubated for 72 hrs by SRB assay relative to control; assay type: functional
[11] = test system: HCC4006; assay: Antiproliferative activity against human HCC4006 cells assessed as inhibition of cell proliferation at 10 nM incubated for 72 hrs by SRB assay relative to control; assay type: functional
[12] = test system: HL-60; assay: Antiproliferative activity against human HL-60 cells at 1000 nM incubated for 72 hrs by MTT assay relative to control; assay type: functional
[13] = test system: MCF7; assay: Antiproliferative activity against human MCF7 cells at 100 nM incubated for 72 hrs by SRB assay relative to control; assay type: functional
[14] = test system: CAL-51; assay: Antiproliferative activity against human CAL-51 cells incubated for 72 hrs by SRB assay; assay type: functional, cell-based
[15] = test system: Rattus norvegicus; assay: Induction of calcium transport in intestine of vitamin D-deficient Sprague-Dawley rat at 780 pmol, ip administered daily for 4 days; assay type: functional, organism-based; settings: time 4.0 day
[16] = test system: ROS 17/2.8; assay: Induction of transcriptional activity in rat ROS 17/2.8 cells transfected with CYP24 incubated for 16 hrs by Luciferase reporter gene assay; assay type: functional, cell-based
[17] = test system: MDA-MB-231; assay: Antiproliferative activity against human MDA-MB-231 cells incubated for 72 hrs by SRB assay; assay type: functional, cell-based
[18] = test system: MV4-11; assay: Upregulation of CD11b expression in human MV4-11 cells at 10 nM incubated for 72 hrs; assay type: functional, cell-based
[19] = test system: Rattus norvegicus; assay: Induction of calcium mobilization in bone of vitamin D-deficient Sprague-Dawley rat at 2340 pmol, ip administered daily for 4 days; assay type: functional, organism-based; settings: Bone element, time 4.0 day
[20] = test system: MV4-11; assay: Effect on cell cycle distribution in human MV4-11 cells assessed as accumulation at G0/G1 phase at 1000 nM incubated for 72 hrs; assay type: functional, cell-based
[21] = test system: MV4-11; assay: Upregulation of CD14 expression in human MV4-11 cells at 10 nM incubated for 72 hrs; assay type: functional, cell-based
[22] = test system: MV4-11; assay: Effect on cell cycle distribution in human MV4-11 cells assessed as decrease in accumulation at G2/M phase at 10 to 1000 nM incubated for 72 hrs; assay type: functional, cell-based; settings: dose 10-1000 nM
[23] = test system: HCC4006; assay: Antiproliferative activity against human HCC4006 cells incubated for 72 hrs by SRB assay; assay type: functional, cell-based; settings: HCC4006, 72 h
[24] = test system: Rattus norvegicus; assay: Induction of calcium transport in intestine of vitamin D-deficient Sprague-Dawley rat at 260 pmol, ip administered daily for 4 days; assay type: functional, organism-based; settings: time 4.0 day
[25] = test system: Rattus norvegicus; assay: Induction of calcium mobilization in bone of vitamin D-deficient Sprague-Dawley rat at 780 pmol, ip administered daily for 4 days; assay type: functional, organism-based; settings: Bone element, time 4.0 day
[26] = test system: MV4-11; assay: Effect on cell cycle distribution in human MV4-11 cells assessed as accumulation at G0/G1 phase at 10 nM incubated for 72 hrs; assay type: functional, cell-based
[27] = test system: NCI-H1650; assay: Antiproliferative activity against human NCI-H1650 cells harboring EGFR mutation incubated for 72 hrs by SRB assay; assay type: functional, cell-based
[28] = test system: MV4-11; assay: Effect on cell cycle distribution in human MV4-11 cells assessed as accumulation at G0/G1 phase at 100 nM incubated for 72 hrs; assay type: functional, cell-based
[29] = test system: NCI-H1975; assay: Antiproliferative activity against human NCI-H1975 cells harboring EGFR mutation incubated for 72 hrs by SRB assay; assay type: functional, cell-based
[30] = test system: MCF-10A; assay: Antiproliferative activity against human MCF-10A cells incubated for 72 hrs by SRB assay; assay type: toxicity, cell-based
[31] = test system: MV4-11; assay: Antiproliferative activity against human MV4-11 cells at 1 nM incubated for 72 hrs by MTT assay relative to control; assay type: functional
[32] = test system: MV4-11; assay: Antiproliferative activity against human MV4-11 cells at 10 nM incubated for 72 hrs by MTT assay relative to control; assay type: functional

Row | Compound | inhibition at 0.1 µM [1] [%] | inhibition at 1 µM [2] [%] | inhibition at 0.001 µM [4] [%] | inhibition at 0.1 µM [5] [%] | inhibition at 0.01 µM [11] [%] | inhibition at 1 µM [12] [%] | inhibition at 0.1 µM [13] [%] | Activity [14] | Activity [15] | Activity [16] | Activity [17] | Activity [18] | Activity [19] | Activity [20] | Activity [21] | Activity [22] | IC50 [23] [nM] | Activity [24] | Activity [26] | Activity [28] | other results
1 | C=C1/C(=C\C=C2/CCC[C@]3(C)[C@@H]([C@H](C)CCCC(C)(C)O)CC[C@@H]23)C[C@@H](O)C[C@@H]1O [CALCITRIOL] | 39.8 | 48.8 | 10.1 | 35.9 | 30.4 | 54.9 | – | – | – | – | – | – | – | – | – | – | – | – | – | – | inhibition at 1 µM [3]: 10%; inhibition at 0.1 µM [6]: 14%; inhibition at 1 µM [7]: 17%; inhibition at 1 µM [8]: 10%; inhibition at 0.1 µM [9]: 15%; inhibition at 0.1 µM [10]: 15%
2 | CC1[C@H](O)CC(=C/C=C2\CCC[C@@]3(C)[C@H]2CCCC[C@H]3[C@H](C)CCCC(C)(C)O)C[C@H]1O (some centres undefined) | 39.7 | 29.7 | – | 20.5 | – | 43.8 | 29 | inactive | inactive | Not active; Exhibited Equal Or Slightly Less Potency Than Calcitriol; Exhibited Least Activity | inactive | inactive | inactive | Active | inactive | Active | 82.6 | – | – | – | –
3 | C[C@H](CCCC(C)(C)O)[C@@H]1CCCC[C@H]2/C(=C/C=C3C[C@@H](O)C(=CCCO)[C@H](O)C3)CCC[C@@]21C | 25.5 | 32 | 37.5 | 22.1 | 39.1 | 27.5 | 21.3 | inactive | – | Active; Exhibited Higher Potency Than Calcitriol | inactive | Active | – | – | Active | Active | – | Active; Most Potent Compound And Equal In Activity To Calcitriol | Active | – | Activity [25]: Active; Most Potent Compound And Equal In Activity To Calcitriol
4 | C=C1[C@H](O)CC(=C/C=C2\CCC[C@@]3(C)[C@H]2CCCC[C@H]3[C@H](C)CCCC(C)(C)O)C[C@H]1O | 32.6 | 50 | 39.1 | 35 | 44.8 | 47.6 | 31 | inactive | – | Active; Exhibited Higher Potency Than Calcitriol | inactive | Active; Exhibited Highest Expression | Active; Second Most Potent Compound But Exhibited Less Activity Than Calcitriol | – | Active | Active | 27.7 | Active; Second Most Potent Compound But Exhibited Less Activity Than Calcitriol | – | Active | Activity [27]: Active; Maintained Its Activity At Constant Level In Tested Concentration But Without Statistical Significance For Lowest Concentrations; Activity [29]: Active; Maintained Its Activity At Constant Level In Tested Concentration But Without Statistical Significance For Lowest Concentrations; Activity [30]: Non-toxic
5 | C=C1/C(=C\C=C2/CCC[C@@]3(C)[C@H]2CCCC[C@H]3[C@H](C)CCCC(C)(C)O)C[C@@H](O)C[C@@H]1O | 44.2 | 42.8 | – | 17.1 | – | 39.7 | 37.9 | inactive | inactive | Active; Exhibited Higher Potency Than Calcitriol | inactive | Active | – | – | Active | Active | 49.6 | – | Active | Active | Activity [25]: inactive; inhibition at 0.001 µM [31]: 23.7%; inhibition at 0.01 µM [32]: 41%
6 | C[C@H](CCCC(C)(C)O)[C@@H]1CCCC[C@H]2/C(=C/C=C3C[C@@H](O)C[C@H](O)C3)CCC[C@@]21C | 25.3 | 31.2 | – | 17.9 | – | 24.2 | 30.8 | inactive | inactive | Active; Exhibited Equal Or Slightly Less Potency Than Calcitriol | inactive | Active | inactive | Active | Active; Exhibited Highest Expression | Active | 45.2 | – | Active | Active | Activity [30]: Non-toxic
